The text below walks through data of patent US12630600B2 (MEDIMMUNE LIMITED, priority 2022, dated 2026).

Where two headings read alike, the source gives them in different places. Starred links: 1 amine or outer side, 2 acyl side, 3 side chain; linkers in the order of their positions; H or OH if unused. Non-standard residues stand in square brackets, D forms with d. Residues, ends and D or L forms follow the SMILES beside them. Groups on a side chain read outwards from the residue. *: point of attachment. C20 diacid = O=C(O)CCCCCCCCCCCCCCCCCCC(=O)*; C18 diacid = O=C(O)CCCCCCCCCCCCCCCCC(=O)*; γGlu = O=C(O)[C@H](CCC(=O)[*:2])N[*:1]; X3 = O=C(CN(Cc1c[nH]cn1)[*:1])[*:2]; αMeF = C[C@](N)(Cc1ccccc1)C(=O)O; AEEA = NCCOCCOCC(=O)O; Aib = CC(C)(N)C(=O)O

As usually defined, the EC50 is the concentration at which the effect is half-maximal.

One series concerns the target T1, neprilysin (Homo sapiens, UniProt P08473).
T1 construct: purchased R&D Systems 1182-ZNC-010
In words: Proteolytic resistance to neprilysin. In kind it is in vitro ADME. Particulars: pH 8.3. The procedure:
10.0 μg (˜10 units) recombinant Neprilysin (R&D Systems: 1182-ZNC-010) was reconstituted to 100 μL (100 μg/mL, ˜100 units/mL) in assay buffer (50 mM Tris, 50 mM NaCl, 50 mM NaHCO3, adjusted to pH 8.3) to give the enzyme stock solution. Peptide stock solutions were prepared to a concentration of ˜250 μM (˜1.0 mg/mL of 4 kDa peptide) in assay buffer. 100 μL (10 μg, ˜10 units) of neprilysin stock solution was added to 100 μL of peptide stock solution (1.0 mg/mL, ˜100 μg of peptide) and the mixture was co-incubated in a temperature regulated incubator at 37° C. for the duration of the experiment. 25 μL aliquots (˜12.5 μg initial peptide) of the peptide-enzyme mixture were periodically withdrawn (t=0, 30 mins, 1 h, 2 h, 4 h and 24 h) and quenched immediately by addition to an equal volume ([…]) of 10% TFA (v/v) in 1:1 water/acetonitrile to arrest proteolytic activity. The quenched aliquot centrifuged at 7800 rpm, and 30 μL of the supernatant was analyzed by analytical RP-HPLC as follows: Analytical RP-HPLC method: Agilent Polaris C8-A column (4.6×100 mm, 3 micron) eluted with a linear binary gradient of 10-90% MeCN (0.1% TFA v/v) in water (0.1% TFA v/v) over either 10 or 15 mins at 1.5 mL min^−1 at 40° C. with detection by UV absorption at 210 nm. Manual integration (AUC) allowed estimation of remaining intact peptide over the time course of the experiment.

The target in series [1] is T2, human glucagon receptor (hGCGR) (Homo sapiens, UniProt P47871).
T2 construct: expressed in transfected cells; host or cells: CHO
In words: cAMP production (HTRF) in CHO cells expressing human glucagon receptor. Particulars: CHO cells. The class given is cell-based. On the technique in general: Cyclic AMP is a second messenger, typically raised through Gs and lowered through Gi signalling.

Series [2] addresses T3, human GLP-1 receptor (hGLP-1R) (Homo sapiens, UniProt P43220).
T3 construct: expressed in transfected cells; host or cells: CHO
In words: cAMP production (HTRF) in CHO cells expressing human GLP-1 receptor. Particulars: for EC50: geometric mean, CHO cells, cAMP; for % Relative Potency Ratio: % GLP-1R activity relative to GLP-1 / % GlucR activity relative to glucagon. The class given is cell-based.

[3] abbreviates: Table 8, peptides modified at position 24, geometric mean, read-out: hGluc-R EC50.
The mark [4] stands for this setting: Table 8, peptides modified at position 24, read-out: hGLP-1R EC50.

T3 sequence (P43220 24-463): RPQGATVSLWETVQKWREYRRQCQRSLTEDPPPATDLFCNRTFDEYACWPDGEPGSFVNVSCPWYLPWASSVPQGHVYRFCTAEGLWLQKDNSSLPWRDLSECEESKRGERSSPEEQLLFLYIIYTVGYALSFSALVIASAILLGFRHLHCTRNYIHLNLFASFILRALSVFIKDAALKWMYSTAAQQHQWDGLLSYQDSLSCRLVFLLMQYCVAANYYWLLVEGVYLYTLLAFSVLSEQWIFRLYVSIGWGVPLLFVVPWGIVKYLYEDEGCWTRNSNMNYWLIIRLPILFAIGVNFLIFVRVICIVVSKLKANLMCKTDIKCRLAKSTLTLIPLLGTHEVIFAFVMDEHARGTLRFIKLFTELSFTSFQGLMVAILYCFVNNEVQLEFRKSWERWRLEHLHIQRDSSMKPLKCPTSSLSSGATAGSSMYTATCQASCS
T2 sequence (P47871 26-477): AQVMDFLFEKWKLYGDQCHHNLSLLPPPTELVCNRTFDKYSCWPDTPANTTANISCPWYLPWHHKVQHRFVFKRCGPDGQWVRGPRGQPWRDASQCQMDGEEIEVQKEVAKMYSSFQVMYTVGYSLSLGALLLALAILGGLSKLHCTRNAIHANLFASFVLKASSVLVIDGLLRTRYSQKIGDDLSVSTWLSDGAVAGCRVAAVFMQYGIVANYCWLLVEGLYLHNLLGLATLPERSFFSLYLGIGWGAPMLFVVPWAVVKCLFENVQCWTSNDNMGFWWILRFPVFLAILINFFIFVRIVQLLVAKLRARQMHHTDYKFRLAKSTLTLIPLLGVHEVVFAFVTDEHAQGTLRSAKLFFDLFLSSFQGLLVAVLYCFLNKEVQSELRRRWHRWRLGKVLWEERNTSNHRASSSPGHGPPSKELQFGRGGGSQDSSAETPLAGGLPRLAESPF
T1 sequence (P08473 whole entry): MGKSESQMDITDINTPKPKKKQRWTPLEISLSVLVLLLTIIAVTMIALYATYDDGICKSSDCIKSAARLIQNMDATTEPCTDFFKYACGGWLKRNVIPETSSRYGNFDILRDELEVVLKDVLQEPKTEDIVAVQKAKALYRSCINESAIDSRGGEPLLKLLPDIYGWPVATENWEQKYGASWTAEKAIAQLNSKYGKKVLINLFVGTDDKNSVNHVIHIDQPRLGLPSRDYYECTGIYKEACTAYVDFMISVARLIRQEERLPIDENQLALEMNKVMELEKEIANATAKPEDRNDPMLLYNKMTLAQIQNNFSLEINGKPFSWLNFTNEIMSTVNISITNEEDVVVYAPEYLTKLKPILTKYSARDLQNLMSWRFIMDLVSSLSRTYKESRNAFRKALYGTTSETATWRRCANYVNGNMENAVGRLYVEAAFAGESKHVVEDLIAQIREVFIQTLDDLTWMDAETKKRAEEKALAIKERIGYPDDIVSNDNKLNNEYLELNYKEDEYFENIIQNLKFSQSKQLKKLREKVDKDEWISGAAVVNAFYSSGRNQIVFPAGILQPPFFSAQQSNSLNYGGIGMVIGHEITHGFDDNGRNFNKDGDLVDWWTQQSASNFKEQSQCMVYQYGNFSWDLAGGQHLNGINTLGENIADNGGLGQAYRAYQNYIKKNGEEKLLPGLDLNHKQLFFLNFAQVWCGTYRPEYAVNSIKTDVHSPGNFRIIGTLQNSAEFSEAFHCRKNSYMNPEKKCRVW

On to `CC[C@H](C)[C@H](NC(=O)C(C)(C)NC(=O)[C@H](CCC(N)=O)NC(=O)[C@@H](NC(=O)[C@H](Cc1ccccc1)NC(=O)[C@H](CC(=O)O)NC(=O)[C@H](CCCCNC(=O)COCCOCCNC(=O)COCCOCCNC(=O)CC[C@H](NC(=O)CCCCCCCCCCCCCCCCC(=O)O)C(=O)O)NC(=O)[C@H](C)NC(=O)[C@H](C)NC(=O)[C@H](CCCNC(=N)N)NC(=O)[C@H](CO)NC(=O)[C@H](CC(=O)O)NC(=O)[C@H](CC(C)C)NC(=O)[C@](C)(Cc1ccccc1)NC(=O)[C@H](CCCCN)NC(=O)[C@H](CO)NC(=O)[C@@H](NC(=O)[C@H](CC(=O)O)NC(=O)[C@H](CO)NC(=O)[C@@H](NC(=O)[C@](C)(Cc1ccccc1)NC(=O)[C@H](CO)NC(=O)CNC(=O)[C@H](Cc1c[nH]cn1)NC(=O)C(C)(C)NC(=O)[C@@H](N)Cc1c[nH]cn1)[C@@H](C)O)C(C)C)C(C)C)C(=O)N[C@@H](C)C(=O)N[C@@H](CC(N)=O)C(=O)N[C@H](C(N)=O)[C@@H](C)O` [Peptide 287] (H-H[Aib]HGS[αMeF]TSDVSK[αMeF]LDSRAAK([AEEA-AEEA-γGlu-C18 diacid])DFVQ[Aib]IANT-NH2), for which, on neprilysin, the “% intact peptide over time, Neprilysin” value turned out to be 100%.
`CC[C@H](C)[C@H](NC(=O)C(C)(C)NC(=O)[C@H](CCC(N)=O)NC(=O)[C@@H](NC(=O)[C@](C)(Cc1ccccc1)NC(=O)[C@H](CC(=O)O)NC(=O)[C@H](CCCCNC(=O)COCCOCCNC(=O)COCCOCCNC(=O)CC[C@H](NC(=O)CC[C@H](NC(=O)CCCCCCCCCCCCCCCCCCC(=O)O)C(=O)O)C(=O)O)NC(=O)[C@H](C)NC(=O)[C@H](C)NC(=O)[C@H](CCCNC(=N)N)NC(=O)[C@H](CO)NC(=O)[C@H](CC(=O)O)NC(=O)[C@H](CC(C)C)NC(=O)[C@H](Cc1ccc(O)cc1)NC(=O)[C@H](CCCCN)NC(=O)[C@H](CO)NC(=O)[C@@H](NC(=O)[C@H](CC(=O)O)NC(=O)[C@H](CO)NC(=O)[C@@H](NC(=O)[C@](C)(Cc1ccccc1)NC(=O)[C@H](CO)NC(=O)CNC(=O)[C@H](Cc1c[nH]cn1)NC(=O)C(C)(C)NC(=O)[C@@H](N)Cc1c[nH]cn1)[C@@H](C)O)C(C)C)C(C)C)C(=O)N[C@@H](C)C(=O)N[C@@H](CC(N)=O)C(=O)N[C@H](C(N)=O)[C@@H](C)O` [Peptide 283] (H-H[Aib]HGS[αMeF]TSDVSKYLDSRAAK([AEEA-AEEA-γGlu-γGlu-C20 diacid])D[αMeF]VQ[Aib]IANT-NH2): at neprilysin, the “% intact peptide over time, Neprilysin” value was found to be 100%.
On to `CCCCCCCCCCCCCCCCCC(=O)N[C@@H](CCC(=O)N[C@@H](CCC(=O)NCCOCCOCCC(=O)NCCOCCOCCC(=O)NCCCC[C@H](NC(=O)[C@H](CCCCN)NC(=O)[C@H](CO)NC(=O)[C@@H](NC(=O)[C@H](CC(=O)O)NC(=O)[C@H](CO)NC(=O)[C@@H](NC(=O)[C@](C)(Cc1ccccc1)NC(=O)[C@H](CO)NC(=O)CNC(=O)[C@H](CCC(N)=O)NC(=O)[C@H](CO)NC(=O)[C@@H](N)Cc1c[nH]cn1)[C@@H](C)O)C(C)C)C(=O)N[C@@H](CC(C)C)C(=O)N[C@@H](CC(=O)O)C(=O)N[C@@H](CO)C(=O)N[C@H](C(=O)N[C@@H](C)C(=O)N[C@@H](C)C(=O)N[C@@H](CCC(N)=O)C(=O)N[C@@H](CC(=O)O)C(=O)N[C@@](C)(Cc1ccccc1)C(=O)N[C@H](C(=O)N[C@@H](CCC(=O)O)C(=O)N[C@@H](Cc1c[nH]cn1)C(=O)N[C@@H](CC(C)C)C(=O)N[C@@H](C)C(=O)N[C@@H](CC(N)=O)C(=O)N[C@H](C(N)=O)[C@@H](C)O)C(C)C)C(C)(C)CCNC(=N)N)C(=O)O)C(=O)O` [Peptide 404, HSQGS(αMePhe)TSDVSKK((PEG)2-(PEG)2-γE-γE-Stearoyl)13LDS(ß-dimethylArg)AAQD(αMePhe)VEHLANT-amide], for which the EC50 in series [1] (Table 10, peptides modified at position 13, geometric mean, read-out: hGluc-R EC50) amounted to 21.8 pM; in series [2] (Table 10, peptides modified at position 13, read-out: hGLP-1R EC50), 5.65 pM. Further, the “% Relative Potency Ratio” value in series [2] (Table 10) was found to be 7.6.
With `CC[C@H](C)[C@H](NC(=O)C(C)(C)NC(=O)[C@H](CCCCNC(=O)COCCOCCNC(=O)COCCOCCNC(=O)CC[C@H](NC(=O)CC[C@H](NC(=O)CCCCCCCCCCCCCCCCC(=O)O)C(=O)O)C(=O)O)NC(=O)[C@@H](NC(=O)[C@](C)(Cc1ccccc1)NC(=O)[C@H](CC(=O)O)NC(=O)[C@H](CCC(N)=O)NC(=O)[C@H](C)NC(=O)[C@H](C)NC(=O)[C@H](CCCNC(=N)N)NC(=O)[C@H](CO)NC(=O)[C@H](CC(=O)O)NC(=O)[C@H](CC(C)C)NC(=O)[C@](C)(Cc1ccccc1)NC(=O)[C@H](CCCCN)NC(=O)[C@H](CO)NC(=O)[C@@H](NC(=O)[C@H](CC(=O)O)NC(=O)[C@H](CO)NC(=O)[C@@H](NC(=O)[C@](C)(Cc1ccccc1)NC(=O)[C@H](CO)NC(=O)CNC(=O)[C@H](Cc1c[nH]cn1)NC(=O)C(C)(C)NC(=O)[C@@H](N)Cc1c[nH]cn1)[C@@H](C)O)C(C)C)C(C)C)C(=O)N[C@@H](C)C(=O)N[C@@H](CC(N)=O)C(=O)N[C@H](C(N)=O)[C@@H](C)O` [Peptide 372] (H-H[Aib]HGS[αMeF]TSDVSK[αMeF]LDSRAAQD[αMeF]VK([AEEA-AEEA-γGlu-γGlu-C18 diacid])[Aib]IANT-NH2; N-terminus assumed), the EC50 was 35.1 pM in series [1] (setting [3]) and 71.8 pM in series [2] (setting [4]). Moreover, the “% Relative Potency Ratio” value in series [2] (Table 8) stood at 1.0.
As for `CC[C@H](C)[C@H](NC(=O)[C@H](Cc1c[nH]c2ccccc12)NC(=O)[C@H](CCCCNC(=O)COCCOCCNC(=O)COCCOCCNC(=O)CC[C@H](NC(=O)CC[C@H](NC(=O)CCCCCCCCCCCCCCCCCCC(=O)O)C(=O)O)C(=O)O)NC(=O)[C@@H](NC(=O)[C@H](Cc1ccccc1)NC(=O)[C@H](CC(=O)O)NC(=O)[C@H](CCC(N)=O)NC(=O)[C@H](C)NC(=O)[C@H](C)NC(=O)[C@H](CCCNC(=N)N)NC(=O)[C@H](CO)NC(=O)[C@H](CC(=O)O)NC(=O)[C@H](CC(C)C)NC(=O)[C@](C)(Cc1ccccc1)NC(=O)[C@H](CCCCN)NC(=O)[C@H](CO)NC(=O)[C@@H](NC(=O)[C@H](CC(=O)O)NC(=O)[C@H](CO)NC(=O)[C@@H](NC(=O)[C@](C)(Cc1ccccc1)NC(=O)[C@H](CO)NC(=O)CNC(=O)[C@H](Cc1c[nH]cn1)NC(=O)[C@H](CO)NC(=O)CNCc1c[nH]cn1)[C@@H](C)O)C(C)C)C(C)C)C(=O)N[C@@H](C)C(=O)N[C@@H](CC(N)=O)C(=O)N[C@H](C(N)=O)[C@@H](C)O` [Peptide 380] (H-[X3]SHGS[αMeF]TSDVSK[αMeF]LDSRAAQDFVK([AEEA-AEEA-γGlu-γGlu-C20 diacid])WIANT-NH2; N-terminus assumed), the EC50 in series [1] (setting [3]) stood at 14900 pM; in series [2] (setting [4]), 871 pM.
With `CC[C@H](C)[C@H](NC(=O)[C@H](Cc1c[nH]c2ccccc12)NC(=O)[C@H](CCCCNC(=O)CC[C@H](NC(=O)CC[C@H](NC(=O)CCOCCOCCNC(=O)CC[C@H](NC(=O)CC[C@H](NC(=O)CCCCCCCCCCCCCCCCCCC(=O)O)C(=O)O)C(=O)O)C(=O)O)C(=O)O)NC(=O)[C@@H](NC(=O)[C@H](Cc1ccccc1)NC(=O)[C@H](CC(=O)O)NC(=O)[C@H](CCC(N)=O)NC(=O)[C@H](C)NC(=O)[C@H](C)NC(=O)[C@H](CCC(N)=O)NC(=O)[C@H](CO)NC(=O)[C@H](CC(=O)O)NC(=O)[C@H](CC(C)C)NC(=O)[C@](C)(Cc1ccccc1)NC(=O)[C@H](CCCCN)NC(=O)[C@H](CO)NC(=O)[C@@H](NC(=O)[C@H](CC(=O)O)NC(=O)[C@H](CO)NC(=O)[C@@H](NC(=O)[C@](C)(Cc1ccccc1)NC(=O)[C@H](CO)NC(=O)CNC(=O)[C@H](Cc1c[nH]cn1)NC(=O)C(C)(C)NC(=O)[C@@H](N)Cc1c[nH]cn1)[C@@H](C)O)C(C)C)C(C)C)C(=O)N[C@@H](C)C(=O)N[C@@H](CC(N)=O)C(=O)N[C@H](C(N)=O)[C@@H](C)O` [Peptide 357], the EC50 in series [1] (hGluc-R EC50 (pM), Table 8, peptides modified at position 24, geometric mean) was 550 pM; in series [2] (hGLP-1R EC50 (pM), Table 8, peptides modified at position 24) it was 917 pM. Further, the “% Relative Potency Ratio” value in series [2] (Table 8) is 1.2.
